In publication PMC7156458, “Synthetic biology based construction of biological activity-related library of fungal decalin-containing diterpenoid pyrones” (Nature Communications, 2020):

Target: Aβ42 (Homo sapiens, UniProt P05067)
Test: Th-T (thioflavin-T) assay of Aβ42 aggregation
Format: biochemical
Conditions: for Th-T fluorescence of Aβ42 (sheet Fig. 7a), mean of three wells: head suffix _50 (concentration 50); for Th-T assay plate reading, mean of three wells (Supplementary Fig. 47): source data, Ab alone and No Ab as controls; for Th-T fluorescence, mean of three wells: Supplementary Fig. 47 source data

Aβ42, sequence (P05067 672-713): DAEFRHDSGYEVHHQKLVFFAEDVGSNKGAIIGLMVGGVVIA

C=C1CC[C@@H]2[C@](C)(CC[C@H]3O[C@H](C=C(C)C)C[C@@]23C)[C@@H]1Cc1c(OC)oc(CO)c(C(=O)OC)c1=O [Compound 21]
Th-T fluorescence of Aβ42 (sheet Fig. 7a), mean of three wells (reading M73): 0.2746 | Th-T fluorescence of Aβ42 (sheet Fig. 7a), mean of three wells (reading M74): 0.2806 | Th-T fluorescence of Aβ42 (sheet Fig. 7a), mean of three wells (reading M75): 0.286 | Th-T fluorescence of Aβ42 (sheet Fig. 7a), mean of three wells (reading M76): 0.2937 | Th-T fluorescence of Aβ42 (sheet Fig. 7a), mean of three wells (reading M77): 0.3019 | Th-T fluorescence of Aβ42 (sheet Fig. 7a), mean of three wells (reading M78): 0.3119 | Th-T fluorescence of Aβ42 (sheet Fig. 7a), mean of three wells (reading M79): 0.3191 | Th-T fluorescence of Aβ42 (sheet Fig. 7a), mean of three wells (reading M80): 0.3266 | Th-T fluorescence of Aβ42 (sheet Fig. 7a), mean of three wells (reading M81): 0.339 | Th-T fluorescence of Aβ42 (sheet Fig. 7a), mean of three wells (reading M82): 0.3487 | Th-T fluorescence of Aβ42 (sheet Fig. 7a), mean of three wells (reading M83): 0.3612 | Th-T fluorescence of Aβ42 (sheet Fig. 7a), mean of three wells (reading M84): 0.3714 | Th-T assay plate reading, mean of three wells (Supplementary Fig. 47) (measurement M1): 0.221 | Th-T assay plate reading, mean of three wells (Supplementary Fig. 47) (measurement M2): 0.2228 | Th-T assay plate reading, mean of three wells (Supplementary Fig. 47) (measurement M3): 0.2221 | Th-T assay plate reading, mean of three wells (Supplementary Fig. 47) (measurement M4): 0.222 | Th-T assay plate reading, mean of three wells (Supplementary Fig. 47) (measurement M5): 0.2108 | Th-T assay plate reading, mean of three wells (Supplementary Fig. 47) (measurement M6): 0.2062 | Th-T assay plate reading, mean of three wells (Supplementary Fig. 47) (measurement M7): 0.1997 | Th-T assay plate reading, mean of three wells (Supplementary Fig. 47) (measurement M8): 0.1959 | Th-T assay plate reading, mean of three wells (Supplementary Fig. 47) (measurement M9): 0.193 | Th-T assay plate reading, mean of three wells (Supplementary Fig. 47) (measurement M10): 0.1931 | Th-T assay plate reading, mean of three wells (Supplementary Fig. 47) (measurement M11): 0.1918 | Th-T assay plate reading, mean of three wells (Supplementary Fig. 47) (measurement M12): 0.1925 | Th-T assay plate reading, mean of three wells (Supplementary Fig. 47) (measurement M13): 0.1929 | Th-T assay plate reading, mean of three wells (Supplementary Fig. 47) (measurement M14): 0.1925 | Th-T assay plate reading, mean of three wells (Supplementary Fig. 47) (measurement M15): 0.1938 | Th-T assay plate reading, mean of three wells (Supplementary Fig. 47) (measurement M16): 0.1946 | Th-T fluorescence, mean of three wells (Fig. 7a) (reading M107, compound at 10 (head suffix _10)): 1.6819 | Th-T fluorescence, mean of three wells (Fig. 7a) (reading M107, compound at 20 (head suffix _20)): 0.9322 | Th-T fluorescence, mean of three wells (Fig. 7a) (reading M107, compound at 50 (head suffix _50)): 0.4795 | Th-T fluorescence, mean of three wells (Fig. 7a) (reading M108, compound at 10 (head suffix _10)): 1.643 | Th-T fluorescence, mean of three wells (Fig. 7a) (reading M108, compound at 20 (head suffix _20)): 0.9316 | Th-T fluorescence, mean of three wells (Fig. 7a) (reading M108, compound at 50 (head suffix _50)): 0.4805 | Th-T fluorescence, mean of three wells (Fig. 7a) (reading M109, compound at 10 (head suffix _10)): 1.641 | Th-T fluorescence, mean of three wells (Fig. 7a) (reading M109, compound at 20 (head suffix _20)): 0.9416 | Th-T fluorescence, mean of three wells (Fig. 7a) (reading M109, compound at 50 (head suffix _50)): 0.4841 | Th-T fluorescence, mean of three wells (Fig. 7a) (reading M110, compound at 10 (head suffix _10)): 1.6563 | Th-T fluorescence, mean of three wells (Fig. 7a) (reading M110, compound at 20 (head suffix _20)): 0.9358 | Th-T fluorescence, mean of three wells (Fig. 7a) (reading M110, compound at 50 (head suffix _50)): 0.4823 | Th-T fluorescence, mean of three wells (Fig. 7a) (reading M111, compound at 10 (head suffix _10)): 1.67 | Th-T fluorescence, mean of three wells (Fig. 7a) (reading M111, compound at 20 (head suffix _20)): 0.9311 | Th-T fluorescence, mean of three wells (Fig. 7a) (reading M111, compound at 50 (head suffix _50)): 0.4866 | Th-T fluorescence, mean of three wells (Fig. 7a) (reading M112, compound at 10 (head suffix _10)): 1.658 | Th-T fluorescence, mean of three wells (Fig. 7a) (reading M112, compound at 20 (head suffix _20)): 0.9334 | Th-T fluorescence, mean of three wells (Fig. 7a) (reading M112, compound at 50 (head suffix _50)): 0.4858 | Th-T fluorescence, mean of three wells (Fig. 7a) (reading M113, compound at 10 (head suffix _10)): 1.671 | Th-T fluorescence, mean of three wells (Fig. 7a) (reading M113, compound at 20 (head suffix _20)): 0.9626 | Th-T fluorescence, mean of three wells (Fig. 7a) (reading M113, compound at 50 (head suffix _50)): 0.4847 | Th-T fluorescence, mean of three wells (Fig. 7a) (reading M114, compound at 10 (head suffix _10)): 1.656 | Th-T fluorescence, mean of three wells (Fig. 7a) (reading M114, compound at 20 (head suffix _20)): 0.941 | Th-T fluorescence, mean of three wells (Fig. 7a) (reading M114, compound at 50 (head suffix _50)): 0.488 | Th-T fluorescence, mean of three wells (Fig. 7a) (reading M115, compound at 10 (head suffix _10)): 1.673 | Th-T fluorescence, mean of three wells (Fig. 7a) (reading M115, compound at 20 (head suffix _20)): 0.9605 | Th-T fluorescence, mean of three wells (Fig. 7a) (reading M115, compound at 50 (head suffix _50)): 0.4915 | Th-T fluorescence, mean of three wells (Fig. 7a) (reading M116, compound at 10 (head suffix _10)): 1.71 | Th-T fluorescence, mean of three wells (Fig. 7a) (reading M116, compound at 20 (head suffix _20)): 0.9595 | Th-T fluorescence, mean of three wells (Fig. 7a) (reading M116, compound at 50 (head suffix _50)): 0.4913 | Th-T fluorescence, mean of three wells (Fig. 7a) (reading M117, compound at 10 (head suffix _10)): 1.657 | Th-T fluorescence, mean of three wells (Fig. 7a) (reading M117, compound at 20 (head suffix _20)): 0.9521 | Th-T fluorescence, mean of three wells (Fig. 7a) (reading M117, compound at 50 (head suffix _50)): 0.4909 | Th-T fluorescence, mean of three wells (Fig. 7a) (reading M118, compound at 10 (head suffix _10)): 1.7 | Th-T fluorescence, mean of three wells (Fig. 7a) (reading M118, compound at 20 (head suffix _20)): 0.9478 | Th-T fluorescence, mean of three wells (Fig. 7a) (reading M118, compound at 50 (head suffix _50)): 0.4918 | Th-T fluorescence, mean of three wells (Fig. 7a) (reading M119, compound at 10 (head suffix _10)): 1.686 | Th-T fluorescence, mean of three wells (Fig. 7a) (reading M119, compound at 20 (head suffix _20)): 0.9445 | Th-T fluorescence, mean of three wells (Fig. 7a) (reading M119, compound at 50 (head suffix _50)): 0.4929 | Th-T fluorescence, mean of three wells (Fig. 7a) (reading M120, compound at 10 (head suffix _10)): 1.675 | Th-T fluorescence, mean of three wells (Fig. 7a) (reading M120, compound at 20 (head suffix _20)): 0.9469 | Th-T fluorescence, mean of three wells (Fig. 7a) (reading M120, compound at 50 (head suffix _50)): 0.4937 | Th-T fluorescence, mean of three wells (Fig. 7a) (reading M121, compound at 10 (head suffix _10)): 1.7005 | Th-T fluorescence, mean of three wells (Fig. 7a) (reading M121, compound at 20 (head suffix _20)): 0.9507 | Th-T fluorescence, mean of three wells (Fig. 7a) (reading M121, compound at 50 (head suffix _50)): 0.4951 | Th-T fluorescence, mean of three wells (Fig. 7a) (reading M122, compound at 10 (head suffix _10)): 1.701 | Th-T fluorescence, mean of three wells (Fig. 7a) (reading M122, compound at 20 (head suffix _20)): 0.9556 | Th-T fluorescence, mean of three wells (Fig. 7a) (reading M122, compound at 50 (head suffix _50)): 0.493 | Th-T fluorescence, mean of three wells (Fig. 7a) (reading M123, compound at 10 (head suffix _10)): 1.651 | Th-T fluorescence, mean of three wells (Fig. 7a) (reading M123, compound at 20 (head suffix _20)): 0.9514 | Th-T fluorescence, mean of three wells (Fig. 7a) (reading M123, compound at 50 (head suffix _50)): 0.4951 | Th-T fluorescence, mean of three wells (Fig. 7a) (reading M124, compound at 10 (head suffix _10)): 1.705 | Th-T fluorescence, mean of three wells (Fig. 7a) (reading M124, compound at 20 (head suffix _20)): 0.9577 | Th-T fluorescence, mean of three wells (Fig. 7a) (reading M124, compound at 50 (head suffix _50)): 0.4977 | Th-T fluorescence, mean of three wells (Fig. 7a) (reading M125, compound at 10 (head suffix _10)): 1.692 | Th-T fluorescence, mean of three wells (Fig. 7a) (reading M125, compound at 20 (head suffix _20)): 0.9599 | Th-T fluorescence, mean of three wells (Fig. 7a) (reading M125, compound at 50 (head suffix _50)): 0.4931 | Th-T fluorescence, mean of three wells (Fig. 7a) (reading M126, compound at 10 (head suffix _10)): 1.704 | Th-T fluorescence, mean of three wells (Fig. 7a) (reading M126, compound at 20 (head suffix _20)): 0.9491 | Th-T fluorescence, mean of three wells (Fig. 7a) (reading M126, compound at 50 (head suffix _50)): 0.4978 | Th-T fluorescence, mean of three wells (Fig. 7a) (reading M127, compound at 10 (head suffix _10)): 1.72 | Th-T fluorescence, mean of three wells (Fig. 7a) (reading M127, compound at 20 (head suffix _20)): 0.9533 | Th-T fluorescence, mean of three wells (Fig. 7a) (reading M127, compound at 50 (head suffix _50)): 0.4965 | Th-T fluorescence, mean of three wells (Fig. 7a) (reading M128, compound at 10 (head suffix _10)): 1.676 | Th-T fluorescence, mean of three wells (Fig. 7a) (reading M128, compound at 20 (head suffix _20)): 0.9486 | Th-T fluorescence, mean of three wells (Fig. 7a) (reading M128, compound at 50 (head suffix _50)): 0.4971 | Th-T fluorescence, mean of three wells (time-course reading M97): 1.027 | Th-T fluorescence, mean of three wells (time-course reading M98): 1.0353 | Th-T fluorescence, mean of three wells (time-course reading M99): 1.027 | Th-T fluorescence, mean of three wells (time-course reading M100): 1.023 | Th-T fluorescence, mean of three wells (time-course reading M101): 1.038 | Th-T fluorescence, mean of three wells (time-course reading M102): 1.048 | Th-T fluorescence, mean of three wells (time-course reading M103): 1.038 | Th-T fluorescence, mean of three wells (time-course reading M104): 1.045 | Th-T fluorescence, mean of three wells (time-course reading M105): 1.028 | Th-T fluorescence, mean of three wells (time-course reading M106): 1.044 | Th-T fluorescence, mean of three wells (time-course reading M107): 1.045 | Th-T fluorescence, mean of three wells (time-course reading M108): 1.036 | Th-T fluorescence, mean of three wells (time-course reading M109): 1.034 | Th-T fluorescence, mean of three wells (time-course reading M110): 1.043 | Th-T fluorescence, mean of three wells (time-course reading M111): 1.041 | Th-T fluorescence, mean of three wells (time-course reading M112): 1.036 | Th-T fluorescence, mean of three wells (time-course reading M113): 1.022 | Th-T fluorescence, mean of three wells (time-course reading M114): 1.039 | Th-T fluorescence, mean of three wells (time-course reading M115): 1.052 | Th-T fluorescence, mean of three wells (time-course reading M116): 1.042
